Where “and” joins values, the source holds several entries; their conditions need not be identical. Identical values can stand only once. Like-named read-outs stand apart in the source and are kept apart here.
Assays:
[1] = system: SARS-CoV-2 Washington strain 1 (USA_WA1/2020); type: cell-based
[2] = In vitro micronucleus formation; type: cell-based
CYP3A4/5 = assay: in vitro; conditions: human, microsomes, pH 7.4, Percent of Control Activity, CYP 3A4/5 (mdz)
[3] = Rat pharmacokinetic study; conditions: for Vd: Vdss
[4] = Monkey pharmacokinetic study; conditions: for Vd: Vdss
BCRP = BCRP (Homo sapiens, UniProt Q9UNQ0); assay: Transporter inhibition using membrane vesicles; conditions: IC50, Rosuvastatin (0.2 µM)
Chain of BCRP (Q9UNQ0 whole entry): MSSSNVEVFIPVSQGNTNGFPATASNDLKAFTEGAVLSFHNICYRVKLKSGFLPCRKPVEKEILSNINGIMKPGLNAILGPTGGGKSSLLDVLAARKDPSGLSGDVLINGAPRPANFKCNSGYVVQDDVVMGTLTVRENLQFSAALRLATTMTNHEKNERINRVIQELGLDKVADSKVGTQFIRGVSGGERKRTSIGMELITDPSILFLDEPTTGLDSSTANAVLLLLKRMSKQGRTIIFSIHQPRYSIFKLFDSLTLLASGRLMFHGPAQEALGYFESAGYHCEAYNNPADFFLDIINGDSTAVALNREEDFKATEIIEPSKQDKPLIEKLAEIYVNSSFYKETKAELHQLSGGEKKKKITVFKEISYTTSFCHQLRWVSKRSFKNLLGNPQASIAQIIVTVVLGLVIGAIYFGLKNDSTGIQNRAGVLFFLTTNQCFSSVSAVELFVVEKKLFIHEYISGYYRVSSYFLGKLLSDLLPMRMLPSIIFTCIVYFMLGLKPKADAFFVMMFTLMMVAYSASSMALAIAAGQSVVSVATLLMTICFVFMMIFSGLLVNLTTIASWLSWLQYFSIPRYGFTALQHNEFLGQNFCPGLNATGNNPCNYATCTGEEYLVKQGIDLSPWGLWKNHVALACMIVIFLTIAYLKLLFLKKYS

CYP2C19 = CYP2C19 (Homo sapiens, UniProt P33261); assay: Reversible CYP inhibition in human liver microsomes; conditions: for activity at 0.01 µM / activity at 0.158 µM / activity at 0.398 µM / activity at 1 µM / activity at 15.8 µM / activity at 39.8 µM / activity at 100 µM: human, microsomes, pH 7.4, Percent of Control Activity; for activity at 39.8 µM: CYP 2C19, 39.8 µM
Chain of CYP2C19 (P33261 whole entry): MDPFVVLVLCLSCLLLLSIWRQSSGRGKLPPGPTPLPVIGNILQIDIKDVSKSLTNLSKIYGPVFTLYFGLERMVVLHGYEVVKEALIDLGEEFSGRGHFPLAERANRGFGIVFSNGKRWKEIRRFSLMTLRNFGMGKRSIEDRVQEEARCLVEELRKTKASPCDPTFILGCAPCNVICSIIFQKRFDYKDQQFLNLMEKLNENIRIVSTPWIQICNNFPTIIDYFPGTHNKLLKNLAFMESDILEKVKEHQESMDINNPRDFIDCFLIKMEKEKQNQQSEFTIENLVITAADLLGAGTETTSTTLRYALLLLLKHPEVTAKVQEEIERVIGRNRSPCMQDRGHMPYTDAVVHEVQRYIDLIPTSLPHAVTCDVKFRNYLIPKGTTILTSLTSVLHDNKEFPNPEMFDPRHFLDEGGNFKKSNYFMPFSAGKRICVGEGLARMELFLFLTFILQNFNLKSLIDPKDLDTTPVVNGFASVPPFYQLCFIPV

OATP1B3 = target: T1, OATP1B3 (Homo sapiens, UniProt Q9NPD5); assay: Transporter inhibition using transfected HEK293 cells; conditions: IC50, Rosuvastatin (0.5 µM)
T1 sequence (Q9NPD5 1-702): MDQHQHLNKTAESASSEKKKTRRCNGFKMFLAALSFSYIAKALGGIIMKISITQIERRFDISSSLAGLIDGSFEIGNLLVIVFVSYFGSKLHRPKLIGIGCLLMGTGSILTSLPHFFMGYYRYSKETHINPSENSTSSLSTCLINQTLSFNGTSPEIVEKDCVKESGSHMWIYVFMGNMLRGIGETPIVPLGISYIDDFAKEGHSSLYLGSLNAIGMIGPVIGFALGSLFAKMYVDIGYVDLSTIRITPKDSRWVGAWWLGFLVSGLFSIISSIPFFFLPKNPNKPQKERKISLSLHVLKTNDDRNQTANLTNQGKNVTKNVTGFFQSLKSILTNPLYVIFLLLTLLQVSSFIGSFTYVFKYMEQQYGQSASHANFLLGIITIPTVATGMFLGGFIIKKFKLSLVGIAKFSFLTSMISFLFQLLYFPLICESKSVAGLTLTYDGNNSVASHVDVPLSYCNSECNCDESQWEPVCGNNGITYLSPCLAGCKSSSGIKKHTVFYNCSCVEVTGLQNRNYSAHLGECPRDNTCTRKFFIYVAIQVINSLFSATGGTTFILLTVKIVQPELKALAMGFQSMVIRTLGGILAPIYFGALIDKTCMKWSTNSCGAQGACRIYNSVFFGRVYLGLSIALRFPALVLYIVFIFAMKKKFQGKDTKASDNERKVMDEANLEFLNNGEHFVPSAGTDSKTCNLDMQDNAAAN

[5] = rat, PF-07304814 prodrug dosed […] intravenous, individual rats, […]
[6] = monkey, PF-07304814 prodrug dosed […] intravenous, individual monkeys, […]

Question: Which “% Well Effect” value [1] does the source give for `COc1cccc2[nH]c(C(=O)N[C@@H](CC(C)C)C(=O)N[C@@H](C[C@@H]3CCNC3=O)C(=O)CO)cc12` [PF-00835231-00] here?
Answer: 0.795%

Question: Which results are given for `COc1cccc2[nH]c(C(=O)N[C@@H](CC(C)C)C(=O)N[C@@H](C[C@@H]3CCNC3=O)C(=O)COP(=O)(O)O)cc12` [PF-07304814]?
Answer: micronuclei formation [2]: did not induce micronuclei formation; activity at 0.01 µM (CYP3A4/5; 30-Minute Preincubation): 99.4%; activity at 0.01 µM (CYP3A4/5; Zero-Minute Preincubation): 102%; activity at 0.158 µM (CYP3A4/5; 30-Minute Preincubation): 102%; activity at 0.158 µM (CYP3A4/5; Zero-Minute Preincubation): 99.1%; activity at 0.398 µM (CYP3A4/5; 30-Minute Preincubation): 101%; activity at 0.398 µM (CYP3A4/5; Zero-Minute Preincubation): 99.3%; activity at 1 µM (CYP3A4/5; 30-Minute Preincubation): 99.2%; activity at 1 µM (CYP3A4/5; Zero-Minute Preincubation): 100%; activity at 15.8 µM (CYP3A4/5; 30-Minute Preincubation): 97.5%; activity at 15.8 µM (CYP3A4/5; Zero-Minute Preincubation): 102%; activity at 39.8 µM (CYP3A4/5; 30-Minute Preincubation): 97%; activity at 39.8 µM (CYP3A4/5; Zero-Minute Preincubation): 100%; activity at 100 µM (CYP3A4/5; 30-Minute Preincubation): 99.2%; activity at 100 µM (CYP3A4/5; Zero-Minute Preincubation): 101%; clearance ([3]; male, Wistar-Hannover, rat, plasma, iv, CL, rat IV, PF-07304814 […] (n=2, range), PF-00835231 2mg/kg (n=3, ± SD)): 194 mL/min/kg; half-life ([3]; male, Wistar-Hannover, rat, plasma, iv, Terminal T1/2, rat IV, PF-07304814 […] (n=2, range), PF-00835231 2mg/kg (n=3, ± SD)): 0.3 h; Vd ([3]; male, Wistar-Hannover, rat, plasma, iv, rat IV, PF-07304814 […] (n=2, range), PF-00835231 2mg/kg (n=3, ± SD)): 0.58 L/kg; clearance ([3]; male, Wistar-Hannover, rat, plasma, iv, […], Clearance, Mean Data, PF-07304814 prodrug dosed […] intravenous, mean): 194 mL/min/kg; clearance ([3]; male, Wistar-Hannover, rat, plasma, iv, […], Clearance, PF-07304814 prodrug dosed […] intravenous, individual rats): 168 mL/min/kg; half-life ([3]; male, Wistar-Hannover, rat, plasma, iv, […], Half life, Mean Data, PF-07304814 prodrug dosed […] intravenous, mean): 0.3 h; half-life ([3]; male, Wistar-Hannover, rat, plasma, iv, […], Half life, PF-07304814 prodrug dosed […] intravenous, individual rats): 0.36 h; Vd ([3]; male, Wistar-Hannover, rat, plasma, iv, […], Mean Data, PF-07304814 prodrug dosed […] intravenous, mean): 0.58 L/kg; Vd ([3]; male, Wistar-Hannover, rat, plasma, iv, […], PF-07304814 prodrug dosed […] intravenous, individual rats): 0.567 L/kg; %unchanged in urine ([3]; rat IV, PF-07304814 […], PF-00835231 2mg/kg): < 0.1%; Half life [3, 5]: 0.23 h; Vdss [3, 5]: 0.592 L/kg; clearance [3, 5]: 220 mL/min/kg; clearance ([4]; male, cynomolgus monkey, plasma, iv, Cl, monkey IV (n=2, range), PF-07304814 […], PF-00835231 1.0mg/kg): 191 mL/min/kg; half-life ([4]; male, cynomolgus monkey, plasma, iv, Terminal T1/2, monkey IV (n=2, range), PF-07304814 […], PF-00835231 1.0mg/kg): 2.6 h; Vd ([4]; male, cynomolgus monkey, plasma, iv, monkey IV (n=2, range), PF-07304814 […], PF-00835231 1.0mg/kg): 1.8 L/kg; clearance ([4]; male, cynomolgus monkey, plasma, iv, […], Clearance, Mean Data, monkey, PF-07304814 prodrug dosed […] intravenous, mean): 191 mL/min/kg; clearance ([4]; male, cynomolgus monkey, plasma, iv, […], Clearance, monkey, PF-07304814 prodrug dosed […] intravenous, individual monkeys): 252 mL/min/kg; half-life ([4]; male, cynomolgus monkey, plasma, iv, […], Half life, Mean Data, monkey, PF-07304814 prodrug dosed […] intravenous, mean): 2.6 h; half-life ([4]; male, cynomolgus monkey, plasma, iv, […], Half life, monkey, PF-07304814 prodrug dosed […] intravenous, individual monkeys): 2.2 h; Vd ([4]; male, cynomolgus monkey, plasma, iv, […], Mean Data, monkey, PF-07304814 prodrug dosed […] intravenous, mean): 1.78 L/kg; %unchanged in urine ([4]; monkey IV, PF-07304814 […], PF-00835231 1.0mg/kg): < 0.1%; Total Concn, Mean Data ([4]; monkey plasma, PF-07304814 prodrug dosed […] intravenous, time 7 h, mean, BLQ=0.1ng/mL): BLQ; Urine Concn ([4]; monkey urine 0-7h, PF-07304814 prodrug dosed […] intravenous, individual monkeys, BLQ=1ng/mL for urine): BLQ; Half life [4, 6]: 3.0 h; clearance [4, 6]: 129 mL/min/kg; IC50 (BCRP): 238 µM and > 130 µM; IC50 (CYP2C19): > 100 µM; Percent of Control Activity (CYP2C19; CYP 2C19, 0.01 µM, Zero-Minute Preincubation, 0.01 µM): 94.2%; Percent of Control Activity (CYP2C19; CYP 2C19, 0.158 µM, 30-Minute Preincubation, 0.158 µM): 96.4%; Percent of Control Activity (CYP2C19; CYP 2C19, 0.158 µM, Zero-Minute Preincubation, 0.158 µM): 101.4%; Percent of Control Activity (CYP2C19; CYP 2C19, 0.398 µM, 30-Minute Preincubation, 0.398 µM): 100.7%; Percent of Control Activity (CYP2C19; CYP 2C19, 0.398 µM, Zero-Minute Preincubation, 0.398 µM): 97.9%; Percent of Control Activity (CYP2C19; CYP 2C19, 1 µM, 30-Minute Preincubation, 1 µM): 97.8%; Percent of Control Activity (CYP2C19; CYP 2C19, 1 µM, Zero-Minute Preincubation, 1 µM): 102.1%; Percent of Control Activity (CYP2C19; CYP 2C19, 15.8 µM, 30-Minute Preincubation, 15.8 µM): 97.1%; Percent of Control Activity (CYP2C19; CYP 2C19, 15.8 µM, Zero-Minute Preincubation, 15.8 µM): 107.2% and 102.9%; Percent of Control Activity (CYP2C19; CYP 2C19, 100 µM, 30-Minute Preincubation, 100 µM): 97.8% and 97.1%; IC50 (CYP2C19; S-Mephenytoin 4′-hydroxylation, T0): > 100 µM; activity at 0.01 µM (CYP2C19; CYP 2C19, 0.01 µM, 30-Minute Preincubation): 103%; activity at 0.01 µM (CYP2C19; CYP 2C19, 0.01 µM, Zero-Minute Preincubation): 99.3%; activity at 0.158 µM (CYP2C19; CYP 2C19, 0.158 µM, 30-Minute Preincubation): 100%; activity at 0.158 µM (CYP2C19; CYP 2C19, 0.158 µM, Zero-Minute Preincubation): 94.4%; activity at 0.398 µM (CYP2C19; CYP 2C19, 0.398 µM, 30-Minute Preincubation): 102%; activity at 0.398 µM (CYP2C19; CYP 2C19, 0.398 µM, Zero-Minute Preincubation): 96.5%; activity at 1 µM (CYP2C19; CYP 2C19, 1 µM, 30-Minute Preincubation): 101%; activity at 1 µM (CYP2C19; CYP 2C19, 1 µM, Zero-Minute Preincubation): 95.8%; activity at 15.8 µM (CYP2C19; CYP 2C19, 15.8 µM, 30-Minute Preincubation): 102%; activity at 15.8 µM (CYP2C19; CYP 2C19, 15.8 µM, Zero-Minute Preincubation): 104%; activity at 39.8 µM (CYP2C19; 30-Minute Preincubation): 97.7%; activity at 39.8 µM (CYP2C19; Zero-Minute Preincubation): 94.4%; activity at 100 µM (CYP2C19; CYP 2C19, 100 µM, 30-Minute Preincubation): 95.5%; activity at 100 µM (CYP2C19; CYP 2C19, 100 µM, Zero-Minute Preincubation): 91.5%; IC50 (OATP1B3): 202 µM and > 130 µM

Reference: PMC8523698, “Preclinical characterization of an intravenous coronavirus 3CL protease inhibitor for the potential treatment of COVID19” (Nature Communications, 2021)
